Results taken from patent US11147853B2, “Polypeptide binding to a plurality of amyloid monomers and aggregates, and use thereof” (Hangzhou Wisdom Panacea Biologics Co., Ltd., priority 2015, dated 2021).
Like-named read-outs stand apart in the source and are kept apart here. Where no end group is shown, it is not given here.

Tests used:
[1] = target: Aβ42 oligomers (Homo sapiens, UniProt P05067); assay: ELISA binding of histidine-tagged ZR derivatives to Aβ42 oligomers
[2] = tested on: SH-SY5Y cells; conditions: for cell activity (MTT, relative to PBS control): amylin 4 μM, 48 hours, amylin alone 61%
Experimental: (§1) SH-SY5Y cells were prepared into a single cell suspension with a medium (DMEM) containing 10% fetal bovine serum and then inoculated into a 96-well cell culture plate at 10000 cells per well and with a volume of 100 μL per well. The cells were incubated at 37° C., 5% of CO2 concentration for 24 hours in an incubator.
Amylin: the final concentration of amylin was 4 μM; a mixture of Amylin and ZR (Amylin:ZR=1:1): the final concentration of Amylin protein was 4 μM and the final concentration of ZR was 4 μM; a mixture of Amylin and ZR (Amylin: ZR=1:10): the final concentration of Amylin protein was 4 μM and the final concentration of ZR was 40 μM;
(§2) Cells were further cultured for 48 hours, then 10 μL of MTT solution was added into each well and incubated at 37° C. for 3 hours. Then the incubation was stopped by adding 100 μL dissolve solution (10% SDS and 5% iso-butanol dissolved in 0.01 M HCL) to each well, and incubated at 37° C. overnight to fully dissolve the MTT crystals. The absorbance of each well was measured on a multifunctional ELISA reader at a wavelength of 570 nm. After subtracting the background, the absorbance of the sample was divided by the absorbance of PBS control to act as an indicator of the cell activity, and the significant differences were analyzed.

[3] = tested on: SH-SY5Y cells; conditions: for cell activity (MTT, relative to PBS control): insulin 60 μM, 48 hours, insulin alone 77%
Experimental: as §1
Insulin: the final concentration of insulin was 60 μM; a mixture of insulin and ZR (insulin:ZR=1:1): the final concentration of insulin protein was 60 μM and the final concentration of ZR was 60 μM; a mixture of insulin and ZR (insulin: ZR=1:5): the final concentration of insulin protein was 60 μM and the final concentration of ZR was 300 μM; PBS was used as control;
as §2

[4] = tested on: SH-SY5Y cells; conditions: for cell activity (MTT, relative to PBS control): lysozyme 20 μM, 48 hours, lysozyme alone 55%
Experimental: as §1
Lysozyme: the final concentration of lysozyme was 20 μM; a mixture of lysozyme and ZR (lysozyme:ZR=1:1): the final concentration of lysozyme protein was 20 μM and the final concentration of ZR was 20 μM; a mixture of lysozyme and ZR (lysozyme: ZR=1:10): the final concentration of lysozyme protein was 20 μM and the final concentration of ZR was 200 μM;
as §2

[5] = tested on: SH-SY5Y cells; conditions: for cell activity (MTT, relative to PBS control): Aβ42 4 μM, 48 hours, Aβ42 alone 71%
Experimental: as §1
Aβ42: the final concentration of Aβ42 was 4 μM; a mixture of Aβ42 and ZR (Aβ:ZR=1:0.5): the final concentration of Aβ42 protein was 4 μM and the final concentration of ZR was 2 μM; a mixture of Aβ42 and ZR (Aβ: ZR=1:1): the final concentration of Aβ42 protein was 4 μM and the final concentration of ZR was 4 μM;
as §2

Aβ42 oligomers, sequence (P05067 672-713 limits assumed): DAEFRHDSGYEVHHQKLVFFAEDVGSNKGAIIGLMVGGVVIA

In the case of SFFNNKA [sequence 13], the “OD450 of binding to Aβ42 oligomers” value [1] is reported as 0.14.
AFFNNKR [sequence 7] was tested, and the “OD450 of binding to Aβ42 oligomers” value [1] was 0.22.
In the case of SFFNNAR [sequence 12], the “OD450 of binding to Aβ42 oligomers” value [1] is reported as 0.14.
With SFFNAKR [sequence 11] the “OD450 of binding to Aβ42 oligomers” value [1] was 0.18.
SFANNKR [sequence 9] was tested, and the “OD450 of binding to Aβ42 oligomers” value [1] was 0.15.
With “SFFNNKR [ZR, Ser-Phe-Phe-Asn-Asn-Lys-Arg]” the “cell activity (MTT, relative to PBS control)” value ([2]; ZR 4 μM (Amylin:ZR=1:1)) was 70%, the “cell activity (MTT, relative to PBS control)” value ([2]; ZR 40 μM (Amylin:ZR=1:10)) was 75% and the “inhibition of cytotoxicity induced by amylin” value ([2]; molar ratio 1:10) was 45.4%. For the same substance, the “cell activity (MTT, relative to PBS control)” value ([3]; ZR 60 μM (insulin:ZR=1:1)) was 92%, the “cell activity (MTT, relative to PBS control)” value ([3]; ZR 300 μM (insulin:ZR=1:5)) was 102% and the “inhibition of cytotoxicity induced by insulin” value ([3]; molar ratio 1:5) was 89.8%. The “cell activity (MTT, relative to PBS control)” value ([4]; ZR 20 μM (lysozyme:ZR=1:1)) was 85%, the “cell activity (MTT, relative to PBS control)” value ([4]; ZR 200 μM (lysozyme:ZR=1:10)) was 93% and the “inhibition of cytotoxicity induced by lysozyme” value ([4]; molar ratio 1:10) was 117.6%. For the same substance, the “cell activity (MTT, relative to PBS control)” value ([5]; ZR 2 μM (Aβ:ZR=1:0.5)) was 80%, the “cell activity (MTT, relative to PBS control)” value ([5]; ZR 4 μM (Aβ:ZR=1:1)) was 82% and the “inhibition of cytotoxicity induced by Aβ42” value ([5]; molar ratio 1:1) was 37.8%.
